# Results from patent publication US12410185B2, “Compounds targeting mutant calreticulin” (MYELOPRO DIAGNOSTICS AND RESEARCH GmbH, priority 2018, dated 2025).
# Assays:
# [1] = test system: Ba/F3-MPL CALR del52/WT cells mixed with Ba/F3-MPL CALR WT cells; assay: two-color competition assay, 12 days; format: cell-based, mouse; details: in the presence of TPO, compared to DMSO control
# Experimental: (§1) FIG. 10: Competition assay of hematoxylin treatment in Ba/F3-MPL cells. Ba/F3-MPL CALR WT (GFP negative) and Ba/F3-MPL CALR del52/WT (GFP positive) cells were mixed and underwent hematoxylin treatment for 12 days. Drug and cytokine were refreshed every 3 days. Percentage of GFP positive cells were recorded by FACs.
# (§2) To determine long-term viability, a two-color competition assay was used. Cell lines were transduced with pMSCV-IRES-GFP/mCherry construct, and the fluorescence-positive cells were sorted by a SH800Z Cell Sorter (Sony). GFP/mCherry-positive cell lines were mixed with their non-fluorescent control cells in a 1:1 ratio and underwent compound treatment for 3-12 days. Compounds and cytokines were refreshed every 3 days. Cell samples were analyzed at each time point by a BD LSRFortessa™ cell analyzer (BD Biosciences).
# [2] = test system: CALR expression (mRNA); assay: Real-time PCR analysis of Ba/F3-MPL cell lines; format: cell-based, mouse; details: 20 uM, 24 h
# Experimental: FIG. 19: Real-time PCR analysis of Ba/F3-MPL cell lines after a 24 h treatment with hematoxylin. Ba/F3-MPL CALR WT, CALR homozygous mutant del37/del37 cell line were treated with 20 uM hematoxylin or an equivalent amount of DMSO as control for 24 h before cell collection and RNA extraction. **P<0.01; ***P<0.001
# 1 million cells from each sample were collected and washed with PBS twice. RNA samples were extracted by using the RNeasy Mini Kit (Qiagen). Taqman® Gene Expression Assays (Mm01545399_m1) was used to quantify the expression of CALR, and the real-time PCR reaction was performed using a 7500 Fast Real-Time PCR machine (Applied Biosystems™). Statistical test was calculated by Graphpad Prism 7.0 using the two-tailed Student's t test.
# [3] = test system: UT-7-TPO CALR del58/WT cells mixed with UT-7-TPO CALR WT cells; assay: two-color competition assay, 12 days; format: cell-based; details: in the presence of TPO
# Experimental: as §1, with “11:” for “10:”, “UT-7-TPO” for “Ba/F3-MPL”, “(mCherry” for “(GFP”, “del58/WT (mCherry” for “del52/WT (GFP”, “mCherry” for “GFP”
# as §2
# [4] = test system: CALR mutant cell lines; assay: cells; details: 72 h, read-out: IC50 in mutant cell lines
# Experimental: Ba/F3 and UT-7-TPO were plated 5.000 cells/well and 16.000 cells/well into 96-well plates with the desirable concentrations of compounds or cytokines added to a total volume of 100 ul. 72 hours later, the CellTiter-Glo luminescent Cell Viability Assay (Promega) was used to determine the cell viability. The luminescent signal was detected by a VICTOR Multilabel Plate Reader (PerkinElmer). Dose response data was analyzed by Graphpad Prism 7.0.
# To further explore the chemical space of the compound, a few hematoxylin analogues were also tested (FIGS. 15 to 17). […] The compounds Protosappanin B (A-4) and RJ002 (B-2) were also tested. […] As a comparison, the clinically used chemotherapeutic drugs hydroxyurea and ruxolitinib were also tested in the cell models.
# [5] = molecular target: wild-type CALR protein (Homo sapiens, UniProt P27797); assay: binding assay (data not shown)
# Chain of wild-type CALR protein (P27797 18-417): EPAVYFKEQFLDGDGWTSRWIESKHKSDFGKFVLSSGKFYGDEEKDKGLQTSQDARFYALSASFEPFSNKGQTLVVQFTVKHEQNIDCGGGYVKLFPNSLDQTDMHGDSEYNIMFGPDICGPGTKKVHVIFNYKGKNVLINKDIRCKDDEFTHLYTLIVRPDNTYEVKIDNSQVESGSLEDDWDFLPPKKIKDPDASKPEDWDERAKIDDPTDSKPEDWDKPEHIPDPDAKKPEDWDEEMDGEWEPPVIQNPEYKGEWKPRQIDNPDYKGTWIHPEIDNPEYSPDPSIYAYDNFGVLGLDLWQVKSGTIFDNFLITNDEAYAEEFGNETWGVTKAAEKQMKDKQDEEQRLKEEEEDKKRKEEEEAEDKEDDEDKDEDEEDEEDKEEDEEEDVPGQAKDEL
# [6] = test system: STAT5 phosphorylation; assay: Western blot time-course, Ba/F3-MPL CALR WT/del79; format: cell-based; details: 8-hour time point
# Experimental: (§3) 2 million Ba/F3-MPL CALR WT or mutant cells were treated with hematoxylin or the equivalent volume of DMSO in a total volume of 15 ml of RPMI media in T75 flasks (Thermal Fisher Scientific). Cells were collected and washed with PBS before being lysed in whole cell lysis buffer containing 20 mM HEPES, 20% glycerol, 50 mM KCl, 400 mM NaCl, 1 mM EDTA, 1 mM DTT, 5 mM Na orthovanadate, 0.5% NP40, 0.1% Tween 20, supplemented with cOmplete™, Mini, EDTA-free Protease Inhibitor Cocktail (Sigma) and PhosSTOP™ (Sigma). Samples were rotated at 4° C. for 20 min prior to centrifugation at […] for 20 min. The soluble fraction of the sample was collected. Protein concentration was quantified by the Bio-Rad Protein Assay (Bio-Rad) according to the manufacturer's instructions and measured by a SpectraMax Microplate Reader (Molecular Devices). Equal amounts of protein were loaded for 8% or 10% SDS-polyacrylamide gel electrophoresis prior to transfer to Amersham™ Protran® nitrocellulose membranes at 35V, 4° C. overnight. Membranes were then blocked by 5% bovine serum albumin fraction V (Sigma) or milk. Mutant calreticulin was detected by a polyclonal rabbit antibody against the mutant specific C-terminal peptide (Myelopro). […]
# [7] = test system: PARP cleavage; assay: Western blot time-course, Ba/F3-MPL CALR WT/del79; format: cell-based; details: 8-hour time point
# Experimental: as §3
# [8] = molecular target: T1, mutant calreticulin (Mus musculus, UniProt P14211); assay: Western blot analysis of Ba/F3-MPL cell lines; format: cell-based; details: time-course
# T1 construct: endogenous in cells; host or cells: Ba/F3-MPL CALR WT/del79 (heterozygous) and CALR del37/del37 (homozygous) cell lines and their hematoxylin-resistant clones
# T1 sequence (P14211 with tags, fused parts or gaps, stated change not applied): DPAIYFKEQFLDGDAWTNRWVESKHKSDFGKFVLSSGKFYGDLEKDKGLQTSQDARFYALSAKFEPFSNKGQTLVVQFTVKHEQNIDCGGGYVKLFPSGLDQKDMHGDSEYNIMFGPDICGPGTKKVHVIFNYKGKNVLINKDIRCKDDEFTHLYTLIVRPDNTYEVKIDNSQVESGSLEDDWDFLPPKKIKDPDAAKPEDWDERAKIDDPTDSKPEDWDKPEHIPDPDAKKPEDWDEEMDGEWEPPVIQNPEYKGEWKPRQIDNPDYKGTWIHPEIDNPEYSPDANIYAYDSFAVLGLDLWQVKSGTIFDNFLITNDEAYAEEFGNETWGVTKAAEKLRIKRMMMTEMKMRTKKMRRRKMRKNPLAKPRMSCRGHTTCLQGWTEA
# Experimental: (§4) 2 million Ba/F3-MPL CALR WT or mutant cells were treated with hematoxylin or the equivalent volume of DMSO in a total volume of 15 ml of RPMI media in T75 flasks (Thermal Fisher Scientific). Cells were collected and washed with PBS before being lysed in whole cell lysis buffer containing 20 mM HEPES, 20% glycerol, 50 mM KCl, 400 mM NaCl, 1 mM EDTA, 1 mM DTT, 5 mM Na orthovanadate, 0.5% NP40, 0.1% Tween 20, supplemented with cOmplete™, Mini, EDTA-free Protease Inhibitor Cocktail (Sigma) and PhosSTOP™ (Sigma). Samples were rotated at 4° C. for 20 min prior to centrifugation at […] for 20 min. The soluble fraction of the sample was collected. Protein concentration was quantified by the Bio-Rad Protein Assay (Bio-Rad) according to the manufacturer's instructions and measured by a SpectraMax Microplate Reader (Molecular Devices). Equal amounts of protein were loaded for 8% or 10% SDS-polyacrylamide gel electrophoresis prior to transfer to Amersham™ Protran® nitrocellulose membranes at 35V, 4° C. overnight. Membranes were then blocked by 5% bovine serum albumin fraction V (Sigma) or milk. Mutant calreticulin was detected by a polyclonal rabbit antibody against the mutant specific C-terminal peptide (Myelopro). The other primary antibodies used were as follows: Calregulin Antibody (F-4)(sc-373863 Santa Cruz), Anti-HSC70(B-6) (J2212, Santa Cruz), Anti-Stat5 (N20)(L1112, Santa Cruz), anti-pYSTAT5 (Tyr694)(71-6900, Life Technologies), anti-TPOR/cMpl (#6944, Millipore), Cleaved PARP (Asp214) (#9548, Cell Signaling). HRP-linked anti-mouse and anti-rabbit antibodies (NA931/4, GE Healthcare Life Sciences) were used as secondary antibodies. Clarity™ Western ECL Blotting Substrates (Biorad) were used for the chemiluminescence detection method.
# (§5) To confirm that the cytotoxic selectivity of hematoxylin in CALR mutant cell lines is due to a specific effect on mutant calreticulin, Ba/F3-MPL CALR WT and mutant cell lines were treated with the compound for 24 hours. […]
# [9] = test system: mutant calreticulin; assay: Western blot analysis of Ba/F3-MPL cell lines; format: cell-based, mouse; details: 20 uM, 24 hours, heterozygous and homozygous mutant cell lines
# Experimental: as §4, §5
# [10] = test system: mutant CALR Ba/F3 cell lines; assay: 72 h dose response test, CellTiter-Glo cell viability assay; format: cell-based, mouse; details: 72 h dose response test
smiles,measurement,setting,value
"Oc1cc2c(cc1O)[C@@H]1c3ccc(O)c(O)c3OC[C@]1(O)C2 [hematoxylin, Hematoxylin]",depletion of CALR mutant cells in co-cultivation with CALR WT cells,[1],almost completely depleted
same,magnitude of change (up-regulation) of wild-type and mutant CALR mRNA expression,[2],around 1.3 fold
same,outgrowth of mutant cells from the cell population,[3],inhibited the outgrowth of the mutant cells
same,IC50,[4],2.6 µM
same,binding to wild-type CALR protein,[5],bound
same,STAT5 phosphorylation,[6],decrease
same,PARP cleavage (apoptotic marker),[7],upregulation
same,mutant calreticulin and MPL protein level,[8]; 8-hour time point,more drastic reduction
same,time to start of decrease of mutant calreticulin and MPL,[8]; Ba/F3-MPL CALR WT/del79,4 h
same,mutant calreticulin protein level,[9],striking down-regulation
same,reduction of IC50 in mutant CALR Ba/F3 cell lines compared with the wild-type cell line,[10],3-5 fold
